According to publication PMC5113778, “Fragment Linking and Optimization of Inhibitors of the Aspartic Protease Endothiapepsin: Fragment‐Based Drug Design Facilitated by Dynamic Combinatorial Chemistry” (Angewandte Chemie (International Ed. in English), 2016):

Experiments:
Type in all cases: biochemical
endothiapepsin [1] = target: T1, endothiapepsin (Cryphonectria parasitica, UniProt P11838); assay: fluorescence-based protease assay adapted from HIV protease assay
T1 construct: gene EAPA; mature active enzyme, monomer
From the text: fluorescence-based protease assay adapted from HIV protease assay on endothiapepsin

endothiapepsin [2] = target: T1, endothiapepsin; assay: fluorescence-based protease assay adapted from HIV protease assay; Ki presumably from IC50 (Cheng-Prusoff)
From the text: fluorescence-based protease assay adapted from HIV protease assay; Ki presumably from IC50 (Cheng-Prusoff) on endothiapepsin

endothiapepsin [3] = target: T1, endothiapepsin; assay: fluorescence-based protease assay adapted from HIV protease assay; crystal soaking
From the text: fluorescence-based protease assay adapted from HIV protease assay; crystal soaking on endothiapepsin

T1 sequence (P11838 90-419): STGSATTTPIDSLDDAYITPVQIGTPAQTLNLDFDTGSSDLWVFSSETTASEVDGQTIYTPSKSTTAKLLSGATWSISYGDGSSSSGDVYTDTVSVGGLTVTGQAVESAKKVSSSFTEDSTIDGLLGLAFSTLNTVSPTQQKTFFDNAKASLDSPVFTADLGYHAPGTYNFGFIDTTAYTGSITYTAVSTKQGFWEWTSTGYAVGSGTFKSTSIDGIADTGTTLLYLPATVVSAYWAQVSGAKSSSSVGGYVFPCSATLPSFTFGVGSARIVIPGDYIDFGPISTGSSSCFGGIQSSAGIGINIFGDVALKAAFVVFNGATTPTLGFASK

With N[C@@H](Cc1ccccc1)C(=O)N/N=C/c1cccc(/C=N/NC(=O)[C@@H](N)Cc2ccccc2)c1 [compound 16, bis-acylhydrazone 16] the IC50 (endothiapepsin [1]) was 2100 ± 100 nM and the Ki (endothiapepsin [2]) was 980 ± 50 nM.
For N[C@@H](Cc1c[nH]c2ccccc12)C(=O)N/N=C/c1cccc(/C=N/NC(=O)[C@@H](N)Cc2c[nH]c3ccccc23)c1 [compound 13, bis-acylhydrazone 13], the IC50 (endothiapepsin [3]) was 54 ± 0.5 nM and the Ki (endothiapepsin [2]) was 25.4 ± 0.2 nM.
